The experiment deals with T1, Dimer of Gag-Pol polyprotein [489-587] (Human immunodeficiency virus 1, UniProt P12497).
T1 construct: 489-587
Briefly: Protease Inhibition Assay. The conditions noted are these: pH 5; 30 °C. Here is the method: A fluorimetric assay was used to determine the effects of the inhibitors on HIV-1 protease. This assay used an internally quenched fluorescent peptide substrate. The measurements were performed in 96-well plates with a Fluoroscan plate reader. Excitation and emission wavelengths were 355 nm and 500 nm, respectively.

In general, Ki refers to the dissociation constant of the complex between target and ligand, obtained from inhibition or displacement. Lower therefore signals tighter binding. Consider `O=C(N[C@H]1c2ccccc2C[C@H]1O)[C@H](CCc1ccccc1)[C@H](O)[C@H](O)[C@@H](CCc1ccccc1)C(=O)N[C@H]1c2ccccc2C[C@H]1O` [N1,N6 -Bis[(2R)-hydroxy-(1S)-indanyl]-(2R,3R,4S,5R)-3,4-dihydroxy-2,5-bis(2-phenylethyl)hexanediamide], for which the Ki was found to be 28 nM.

With `O=C(N[C@H]1c2ccccc2C[C@H]1O)[C@H](OCc1ccccc1)[C@H](O)[C@@H](O)[C@@H](OCc1ccccc1)C(=O)N[C@H]1c2ccccc2C[C@H]1O` [symmetric/asymmetric inhibitor 2], the Ki was 0.6 nM. Compared with the last compound, the Ki is about 47-fold lower.

The compound `O=C(N[C@H]1c2ccccc2C[C@H]1O)[C@H](CCc1ccccc1)[C@@H](O)[C@H](O)[C@@H](CCc1ccccc1)C(=O)N[C@H]1c2ccccc2C[C@H]1O` [(2R,3R,4R,5R)-3,4-dihydroxy-N,N'-bis[(1S,2R)-2-hydroxy-2,3-dihydro-1H-inden-1-yl]-2,5-bis(2-phenylethyl)hexanediamide] had a Ki of 1.1 nM.

The values are drawn from BindingDB's records for doi:10.1021/jm0011171 (Stockholm University, 2001).
